In ChEMBL document CHEMBL1146974, “Identification and structure-activity relationships of a new series of Melanocortin-4 receptor antagonists” (Bioorg Med Chem Lett, 2006):

Experiments:
Melanocortin receptor 4 [1] = target: T1, Melanocortin receptor 4 (Homo sapiens, UniProt P32245); assay: Binding affinity to MC4R by membrane filtration assay
Melanocortin receptor 4 [2] = target: T1, Melanocortin receptor 4; assay: Antagonist activity against MC4R by cAMP functional assay
[3] = target: Voltage-gated inwardly rectifying potassium channel KCNH2 (Homo sapiens, UniProt Q12809); assay: Binding affinity to hERG
[4] = Oral bioavailability in rat; type: ADME, organism-based; conditions: in vivo
[5] = Plasma half life in iv dosed rat; type: ADME, organism-based

T1 sequence (P32245 whole entry): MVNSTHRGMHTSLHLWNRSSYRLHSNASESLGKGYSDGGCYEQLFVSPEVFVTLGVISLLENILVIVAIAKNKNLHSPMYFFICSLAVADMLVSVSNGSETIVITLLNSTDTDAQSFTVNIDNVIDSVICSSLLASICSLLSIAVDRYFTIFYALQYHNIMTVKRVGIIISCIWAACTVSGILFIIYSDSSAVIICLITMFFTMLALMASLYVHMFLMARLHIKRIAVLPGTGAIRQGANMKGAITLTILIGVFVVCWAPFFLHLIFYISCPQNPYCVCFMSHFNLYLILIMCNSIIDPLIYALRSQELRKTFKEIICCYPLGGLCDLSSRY
Chain of Voltage-gated inwardly rectifying potassium channel KCNH2 (Q12809 whole entry): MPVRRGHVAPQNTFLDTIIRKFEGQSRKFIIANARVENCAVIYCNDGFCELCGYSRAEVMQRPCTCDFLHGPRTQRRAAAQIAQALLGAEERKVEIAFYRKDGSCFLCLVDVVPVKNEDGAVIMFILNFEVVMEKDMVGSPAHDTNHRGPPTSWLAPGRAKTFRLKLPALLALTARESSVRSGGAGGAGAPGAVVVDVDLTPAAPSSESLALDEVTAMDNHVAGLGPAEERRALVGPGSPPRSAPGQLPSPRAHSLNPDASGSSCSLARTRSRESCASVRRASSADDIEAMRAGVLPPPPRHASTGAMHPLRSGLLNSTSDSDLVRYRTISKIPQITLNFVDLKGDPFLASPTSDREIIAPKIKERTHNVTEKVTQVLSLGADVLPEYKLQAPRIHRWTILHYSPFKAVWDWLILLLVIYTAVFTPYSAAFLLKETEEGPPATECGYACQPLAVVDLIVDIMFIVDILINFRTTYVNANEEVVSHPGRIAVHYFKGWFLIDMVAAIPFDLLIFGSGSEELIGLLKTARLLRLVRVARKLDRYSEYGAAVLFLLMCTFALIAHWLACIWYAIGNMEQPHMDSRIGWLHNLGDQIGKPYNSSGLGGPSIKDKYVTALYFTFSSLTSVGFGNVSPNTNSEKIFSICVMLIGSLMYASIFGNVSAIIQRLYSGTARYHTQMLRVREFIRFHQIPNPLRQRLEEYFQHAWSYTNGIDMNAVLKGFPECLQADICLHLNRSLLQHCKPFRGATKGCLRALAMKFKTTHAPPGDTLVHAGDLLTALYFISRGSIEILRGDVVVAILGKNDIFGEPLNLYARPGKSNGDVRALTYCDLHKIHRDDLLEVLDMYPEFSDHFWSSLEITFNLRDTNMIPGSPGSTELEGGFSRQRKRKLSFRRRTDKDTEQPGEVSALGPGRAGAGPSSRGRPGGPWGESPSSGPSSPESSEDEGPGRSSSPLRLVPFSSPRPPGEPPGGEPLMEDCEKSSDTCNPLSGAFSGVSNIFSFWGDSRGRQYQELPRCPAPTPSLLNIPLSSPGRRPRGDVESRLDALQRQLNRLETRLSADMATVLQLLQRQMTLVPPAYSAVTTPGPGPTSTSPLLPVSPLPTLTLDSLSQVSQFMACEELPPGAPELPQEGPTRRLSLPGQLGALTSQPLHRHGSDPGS

| Ki (Melanocortin receptor 4 [1]) | IC50 (Melanocortin receptor 4 [2]) | bioavailability [4] | half-life [5] | Compound | Ki [3] |
| --- | --- | --- | --- | --- | --- |
| 57 nM | 1200 nM | – | – | COc1ccc(Br)cc1CCc1c(F)cccc1C(=O)/N=C(\N)NCCCCN(C)Cc1cccc2ccccc12 | – |
| 26 nM | 650 nM | – | – | COc1ccc(Br)cc1CCc1c(F)cccc1C(=O)/N=C(\N)NCCCCN1CCc2ccccc2C1 | – |
| 900 nM | 530 nM | – | – | CCN(CC)CCCC(C)N=C(N)NC(=O)c1cccc(F)c1OCc1cc(Br)ccc1OC (stereo not given) | – |
| 4.3 nM | 130 nM | – | – | CCN(CC)CCCC(C)/N=C(/N)NC(=O)c1cccc(F)c1CCc1cc(Br)ccc1OC (stereo not given) | – |
| 920 nM | – | – | – | CCCCN=C(N)NC(=O)c1cccc(F)c1CCc1cc(Br)ccc1OC | – |
| 89 nM | 1500 nM | – | – | CCN(CC)CCCC(C)/N=C(/N)NC(=O)c1cccc(F)c1CCc1cccc2ccccc12 (stereo not given) | – |
| 2.8 nM | 97 nM | – | – | CCN1CCC(C/N=C(/N)NC(=O)c2cccc(F)c2CCc2cc(Br)ccc2OC)CC1 | – |
| 26000 nM | > 33000 nM | – | – | CCN(CC)CCCC(C)N=C(N)NC(=O)c1cccc(F)c1CCc1ccccc1Cl (stereo not given) | – |
| 2500 nM | 17000 nM | – | – | CCN(CC)CCCC(C)/N=C(\NC(=O)c1cccc(F)c1CCc1cc(Br)ccc1OC)NC(C)C (stereo not given) | – |
| – | – | – | – | COc1ccc(Br)cc1CCc1c(Cl)cccc1C1=NCCN1 | 840 nM |
| 0.58 nM | 70 nM | – | – | COc1ccc(Br)cc1CCc1c(F)cccc1C(=O)/N=C(\N)NCCCCN1CCCCC1 | – |
| 80 nM | 5700 nM | – | – | COc1ccc(Br)cc1CCc1c(F)cccc1C(=O)/N=C(\N)NCCCNC1CCCCC1 | – |
| 64 nM | 670 nM | – | – | COc1ccc(Br)cc1CCc1c(F)cccc1C(=O)NC(N)=NCCCN1CCN(C)CC1 | – |
| 110 nM | 660 nM | – | – | CCN(CC)CCCC(C)N=C(N)NC(=O)c1cccc(F)c1CCc1cc(Br)ccc1Cl (stereo not given) | – |
| 3.2 nM | 330 nM | 6.3% | 31 h | COc1ccc(Br)cc1CCc1c(F)cccc1C(=O)/N=C(\N)NCCCN1CCCCC1 | – |
| 190 nM | 4500 nM | – | – | COc1ccc(Br)cc1CCc1c(F)cccc1C(=O)/N=C(\N)NCCN1CCCC1 | – |
| 4100 nM | – | – | – | CCN(CC)CCCC(C)/N=C(\NC(=O)c1cccc(F)c1CCc1cc(Br)ccc1OC)Nc1ccccc1 (stereo not given) | – |
| 770 nM | 8500 nM | – | – | COc1ccc(Br)cc1CCc1c(F)cccc1C(=O)/N=C(\N)NCC(C)C | – |
| 2600 nM | – | – | – | COc1ccc(Br)cc1CCc1c(F)cccc1C(=O)NC(N)=NCCC1CCCCC1 | – |
| 11 nM | 260 nM | – | – | CCN(CC)CCCC(C)N=C(N)NC(=O)c1ccsc1CCc1cc(Br)ccc1OC (stereo not given) | – |
| 690 nM | 1800 nM | – | – | CCN(CC)CCCC(C)N=C(N)NC(=O)c1cccc(F)c1CCc1ccc2ccccc2c1 (stereo not given) | – |
| 5.1 nM | 180 nM | – | – | COc1ccc(Br)cc1CCc1c(F)cccc1C(=O)/N=C(\N)NCCCCN(C)Cc1ccccc1 | – |
| 6300 nM | – | – | – | CCN(CC)CCCC(C)/N=C(/NC)NC(=O)c1cccc(F)c1CCc1cc(Br)ccc1OC (stereo not given) | – |
| 14 nM | 170 nM | – | – | CCN(CC)CCCC(C)N=C(N)NC(=O)c1cccc(F)c1CCc1cc(OC)cc(OC)c1 (stereo not given) | – |
| 0.83 nM | 260 nM | – | – | CCN(CC)CCCC(C)N=C(N)NC(=O)c1cccc(Cl)c1CCc1cc(Br)ccc1OC (stereo not given) | – |
| 21 nM | 390 nM | – | – | COc1ccc(Br)cc1CCc1c(F)cccc1C(=O)/N=C(\N)NCCCCN1CCC2CCCCC2C1 (stereo not given) | – |
| – | – | 4.6% | 1 h | COc1ccc(Br)cc1CCc1c(F)cccc1C1=NCCN1 | – |
| 700 nM | 2580 nM | – | – | COc1ccc(Br)cc1CCc1c(Cl)cccc1C(=O)N=C(N)N | – |
| 13 nM | 31 nM | – | – | COc1ccc(Br)cc1CCc1c(F)cccc1C(=O)NC(N)=NCC1CCNCC1 | – |
